The source of these data is patent publication US5667764A, “Compounds, compositions and methods for binding bio-affecting substances to surface membranes of bio-particles” (Zynaxis, Inc., priority 1992, dated 1997).

On data set [1], the source says: The HPLC system used comprised a Waters Model 600E solvent delivery system with W600E gradient controller, U6K injector and Model 990 photodiode array detector. Chromatography conditions were as follows: Column: Waters Nova-Pak (phenyl, 4 μm, 3.9 mm×15 cm); Mobile phase: Solvent A=Water:Methanol:Acetonitrile:PIC A reagent (Waters) (395:25:80:4), Solvent B=Water:Methanol: Acetonitrile:PIC A reagent (225:25:250:4), Solvent C=Methanol:Water:PIC A reagent (490:15:4). Gradient conditions: 100% (A) to 60%:40% (A:B) over 20 minutes then to 100% (C) over 10 minutes followed by 100% (C) for 40 minutes. Flow rate: 2 mL/min. Detection: photodiode array from 240-575 nm.
The rate of acid hydrolysis of hydrazone conjugate (19) to produce 7-N-(5-oxopentanoyl) deacetyl colchicine was studied by HPLC at 3 different pH's.
Buffer solutions were prepared according to the procedures described by Gomori, "Methods in Enzymology", 16:138 (1955). HPLC conditions and retention times were the same as described above.
Compound solutions to be studied were prepared by adding 50 μl of hydrazone conjugate solution (1 mg/ml of methanol) to a screw capped vial (1 ml) containing citrate phosphate buffer (200 μl) of the desired pH. The vials were kept closed and the solutions were analysed by HPLC (350 nm detection) for conjugate (19) remaining and 7-N-(5-oxopentanoyl) deacetyl colchicine produced at 24 h and 48 h. Each hplc injection was […].

A further data set deals with A10 cells. Kind of data set: Antiproliferative activity on A10 cells after one 10 minute application. The data set is classed as cell-based, rat. The settings on record: for Cell count: 10 μM, 10 minute application. On the procedure: To determine the antiproliferative action of the compounds of invention, in vitro studies were performed using A10 cells, a clonal cell line originally derived from the thoracic aorta of embryonic rats, that proliferate as myoblasts and develop into cells which phenotypically resemble smooth muscle cells (B. Kimes and B. Brandt, Exptl. Cell Res. 98:349 (1976). Typically, twelve-well plates were seeded with 2500-10,000 A10 cells/cm^2 in Dulbecco's Modified Eagles Medium (DMEM) with 10% fetal calf serum (FCS) and allowed to adhere and stabilize for 24 hours at 37° C. Test substances were then prepared in the required concentrations in appropriate cell binding media and, after aspirating the plating medium, applied to the individual wells at 37° C. for a period of only 10 minutes. The treatments were then aspirated, the wells washed 4 times with non-treatment containing medium and then placed in non-treatment containing DMEM with 10% FCS for the duration of the study. At various times after treatment application, triplicate wells were aspirated, the aspirate saved, and the wells treated with 0.25 ml of 0.25% trypsin to release the adherent cells. The enzymatic action of trypsin on the cells was stopped by addition of excess protein (1.75 ml DMEM+10% FCS), the aspirate returned to the wells, and an aliquot of the resultant cell suspension counted in a Coulter Counter (Model ZM with Sampling Stand II). Cell count was normalized to cells per square centimeter of growing area (surface area of well bottom).

The subject of the next data set is membrane ghosts. Kind of data set: Membrane binding stability (MBS) assay in membrane ghosts with 5% albumin. The settings on record: 24 hours, Table III. The text has this: Determination of Membrane Binding Stability
For example, very stable binding to membranes might be required for applications such as delivery of therapeutic radionuclides to tumor sites, as loss of compound could lead to the radionuclide producing its toxic effect at non-tumor sites. On the other hand, more rapid loss of compound from biomembranes may be desirable for application involving controlled delivery rates of therapeutic agents. Accordingly, there is described hereinbelow an assay for determining MBS under conditions approximating those found in vivo.
In carrying out this assay, approximately physiological concentrations of serum albumin (5%) are used. […] To better approximate the effects of large fluid volumes to which labelled cells are exposed in vivo, the assay for MBS is carried out by suspending a decreasing number of labeled membrane ghosts in a fixed volume of albumin-containing saline. At 24 hours, the total amount of label present is determined by sampling the well mixed suspension; subsequently, the membrane ghosts are pelleted by centrifugation and the amount of label released into the supernatant is determined and expressed as a percent of total label. Percent retention is plotted against number of ghosts per ml. of suspension, and MBS is determined as the area under the curve between 5×10^7 ghosts/ml. and 4×10^8 ghosts/ml.

For another data set, the system named is myointimal thickening. The settings on record: animal models; cited from earlier work.
In data set [2] the test system is rabbit red blood cell ghosts. Kind of data set: Binding of anticoagulant conjugate to rabbit red blood cell ghosts. The settings on record: 24 h, 37° C. On the procedure:
Ghosts were then washed extensively and placed in phosphate buffered saline with lmM EDTA and 5% BSA for 24 h at 37° C. Samples were agitated and a 50 μl aliquot removed from each sample and placed in 200 μl of Triton X-100® in a microtiter plate well (representingtotal suspension fluorescence). The original samples were centrifuged for 10 minutes and a 50 μl sample of the ghost supernatant removed and placed in 200 μl of Triton X-100® (representing free fluorescence in the aqueous phase only). The fluorescence of all samples was determined on a fluorometric microtiter plate reader. Bound fluorescence was determined by subtraction of free from total after correction for background fluorescence from unstained ghosts; the percent free and bound fluorescence was determined by dividing the bound and free fluorescence by total fluorescence, respectively and multiplying by 100.

Data set [3] has as its system lumenal surface of the femoral arteries. Kind of data set: Retention at intravascular site. The data set is classed as in vivo, rabbit. The method, then: To determine whether the compounds of the invention will remain at an intravascular site once applied experiments were performed wherein ^125 I-substituted lipophilic cyanine, prepared as described in Example 2 (compound 12, Reaction Scheme 2) was applied to the lumenal surface of the femoral arteries of anesthetized rabbits. The femoral artery was surgically isolated and a small, proximal side branch was cannulated with a short length of PE10 tubing. A 1 cm arterial segment surrounding the side branch was occluded and 20-50μl of a solution containing ^125 I-substituted compound 12 was administered through the cannula to the occluded section and allowed to remain for 5-10 min. The ^125 I-substituted compound was then withdrawn along with the cannula, the side branch was permanently tied, the femoral artery occlusion removed to allow the return of blood flow, and the femoral incision was closed. ^125 I-radioactivity was then monitored at selected times over the next 3 weeks with a Ludium Model 2200 Scaler Ratemeter and a Model 44-17 2 inch crystal with windows optimized for the detection of ^125 I.

Data set [4] deals with rabbit hind limb (femoral arterial bed), substance P receptors. Kind of data set: Vascular response in rabbit blood perfused hind limb preparation. The data set is classed as in vivo. The text has this:
The in vivo receptor pharmacology of the compound produced in Example 3d., above, was studied in a rabbit blood perfused hind limb preparation similar to that described by U. Forstermann et al., J. Pharmacol. Exp. Ther., 234: 1055-61 (1987). Blood from a pentobarbital anesthetized, artificially ventilated rabbit was withdrawn from a cannulated carotid artery, passed within medical grade silastic tubing through a constant speed roller pump, and directed to a cannulated femoral artery. Distal perfusion pressure in the femoral arterial bed was measured (in mm Hg) by means of a micropressure transducer (Millar) passed down the perfusion tubing so as to lie just beyond the tip of the femoral catheter. Initially, pump speed was adjusted so that distal perfusion pressure approximated systemic mean arterial blood pressure after which blood flow was kept constant for the remainder of each experiment. Changes in resistance then varied directly as distal perfusion pressure in a manner similar to that described by Ohm's law, such that:
Vascular Resistance=Perfusion Pressure Blood Flow
Thus, by maintaining blood flow constant for the duration of each experiment, changes in distal perfusion pressure directly reflected vascular resistance such that a decrease in pressure signifies vasodilation and an increase in pressure signifies vasoconstriction. Direct injection into the perfusion circuit could thus be used to assess the vascular biology and pharmacology of substances believed to exert actions on in vivo vascular smooth muscle tone.

[5] abbreviates: labeling 10 μM (compound 7), 20 μM (conjugate, FITC-heparin).

Where two headings read alike, the source gives them in different places.

As for `CCCCCCCCCCCCCCCCCCCCCCN1C(=CC=CC2=[N+](CCCCCCCCCCCCCC)c3ccc(CNC(=O)CCCC(=O)NN=CCCCC(=O)N[C@H]4CCc5cc(OC)c(OC)c(OC)c5-c5ccc(OC)c(=O)cc54)cc3C2(C)C)C(C)(C)c2ccccc21` [Compound 19, 7-N(5-oxopentanoyl) deacetyl colchicine Lipophilic Cyanine Hydrazone Conjugate], the “Free colchicine hydrolysis product detected by HPLC” value in data set [1] (pH 4.21, 5.74, 7.35) is recorded as “the expected aidehyde, compound 18”. The “Cleavage of (19) to produce (18)” value was 78% in data set [1] (pH 4.21, 24 hours); 100% in data set [1] (pH 4.21, 48 hours); 45% in data set [1] (pH 5.74, 24 hours); 100% in data set [1] (pH 5.74, 48 hours); 36% in data set [1] (pH 7.35, 24 hours); 77% in data set [1] (pH 7.35, 48 hours). Also, the Cell count in the data set with A10 cells (day 0) was 2291.12 cells per square centimeter; in the data set with A10 cells (day 1), 2625.33 cells per square centimeter; in the data set with A10 cells (day 2), 2369.45 cells per square centimeter; in the data set on A10 cells (day 3), 2206.27 cells per square centimeter; in the data set with A10 cells (day 6) it was 8800.26 cells per square centimeter; in the data set with A10 cells (day 7), 10895.65 cells per square centimeter. Moreover, the Cell-associated fluorescence entry in the data set with A10 cells (flow cytometry) is listed as “significant cell-associated fluorescence”.

On to `CCCCCCCCCCCCCCN1C(=CC=Cc2oc3ccccc3[n+]2CCCCCCCCCCCCCC)Oc2ccccc21` [W], for which the MBS with membrane ghosts came out at 77 ± 1.1%.

`CCCCCCCCCCCCCCCCCCN1C(=CC=Cc2oc3ccccc3[n+]2CCCCCCCCCCCCCCCCCC)Oc2ccccc21` [Y] had an MBS in the data set on membrane ghosts of 93 ± 1.0%.

Take `CCCCCCCCCCCCCCCCCCCCCCN1C(=CC=Cc2sc3ccccc3[n+]2CCC)Sc2ccccc21` [V]: the MBS in the data set on membrane ghosts was 64 ± 3.4%.

`CN(C/C=C/C#CC(C)(C)C)Cc1cccc2ccccc12` [Terbinafine]: the Myointimal thickening entry in the data set on myointimal thickening was “reduction of myointimal thickening”.

For `CCCCCCCCCCCCCCCCCCCCCC[N+]1=C(C=CC=C2N(CCCCCCCCCCCCCC)c3ccc(CNC=O)cc3C2(C)C)C(C)(C)c2ccccc21` [Compound 7, 1'-docosanyl-5(N-formylaminomethyl)-1-tetradecyl-3,3,3',3'tetramethylindocarbocyanine iodide], in data set [2] (5% BSA), the “% Bound” value amounted to 94.96% and the “% Free” value was 5.04%. In addition, in data set [2] (setting [5]), the “Fluorescence intensity, supernatant” value was found to be 73.69 and the “Fluorescence intensity, suspension” value came to 1439.00.

`CCCCCCCCCCCCCCN1C(=CC=CC2=[N+](CCC)c3ccccc3C2(C)C)C(C)(C)c2ccccc21` [AC] showed an MBS with membrane ghosts of 10 ± 2.1%.

Consider `CCCCCCCCCCCCCCCCCCCCCCN1C(=CC=CC2=[N+](CCCCCCCCCCCCCC)c3ccccc3C2(C)C)C(C)(C)c2cc([125I])ccc21` [Compound 12, N-docosanyl-N'-tetradecyl-5-iodo-3,3,3',3'-tetramethylindocarbocyanine chloride], for which the “Applied material (radioactivity) remaining within the artery” value in data set [3] (after first 24 hour, mean±sem, n=4) was determined as 34.0±10.9%. Moreover, the “Elimination half-life after the first 24 hours” value in data set [3] (after first 24 hours) came out at 365.8 ± 69.4 h. The Initial elimination half-life in data set [3] (first 24 hour) was found to be 18.5 ± 6.96 h. In addition, the “Time detectable after application” value in data set [3] (rabbit, in vivo) was “at least 3 weeks”.

With `CC(C)NCC(O)c1ccc(O)c(O)c1` (stereo not shown) [isoproterenol, reference compound], the “Effect of antagonist [D-Pro^2,D-Trp^7.9]-substance P on the response” value in data set [4] (during infusion of antagonist) is recorded as “not antagonized by the SP antagonist”. For the same compound, in data set [4] (local injection, no antagonist), the “Hind-limb perfusion pressure response” value is “dose related decrease in perfusion pressure”.

Regarding `CC(C)[C@@H]1NC(=O)[C@H](CCCCN)NC(=O)[C@@H](Cc2c[nH]c3ccccc23)NC(=O)[C@H](Cc2ccc(O)cc2)NC(=O)[C@@H](NC(=O)[C@H](N)Cc2ccc3ccccc3c2)CSSC[C@@H](C(=O)N[C@H](C(N)=O)[C@@H](C)O)NC1=O` [Angiopeptin], the Myointimal thickening entry in the data set on myointimal thickening is on record as “reduction of myointimal thickening”.

In the data set on membrane ghosts, `CCCCCCCCCCCCCCCCCCN1C(=CC=Cc2sc3ccccc3[n+]2CCCCCCCCCCCCCCCCCC)Sc2ccccc21` [AA] gave an MBS of 94 ± 1.5%.

For the compound `CCCCCCCCCCCCCCCCCCCCCCN1C(=CC=Cc2oc3ccccc3[n+]2CCC)Oc2ccccc21` [U], in the data set with membrane ghosts, the MBS amounted to 47 ± 3.1%.

`CCCCCCCCCCCCCCN1C(=CC=Cc2sc3ccccc3[n+]2CCCCCCCCCCCCCC)Sc2ccccc21` [X] showed an MBS in the data set on membrane ghosts of 91 ± 1.3%.

For interferon-gamma, the Myointimal thickening result in the data set with myointimal thickening is recorded as “reduction of myointimal thickening”.
